A value given as a limit tells only on which side of the number the result lay.

For the first assay, the target named is T1, hCCR4 (Chem5-hCCR4 cells) (Homo sapiens, UniProt P51679).
T1 sequence (P51679 1-360): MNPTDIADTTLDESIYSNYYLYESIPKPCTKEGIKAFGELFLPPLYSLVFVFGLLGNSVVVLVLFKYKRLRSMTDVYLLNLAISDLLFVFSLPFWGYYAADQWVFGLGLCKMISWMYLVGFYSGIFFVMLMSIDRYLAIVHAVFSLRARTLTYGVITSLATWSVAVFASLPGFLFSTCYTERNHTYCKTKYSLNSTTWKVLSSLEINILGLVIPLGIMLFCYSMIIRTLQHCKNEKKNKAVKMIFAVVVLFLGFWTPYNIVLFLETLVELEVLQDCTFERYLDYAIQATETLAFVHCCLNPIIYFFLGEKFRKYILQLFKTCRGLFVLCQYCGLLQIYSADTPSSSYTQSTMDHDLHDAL
Briefly: Calcium flux assay (CCL22-stimulated, FLIPR Calcium 6 dye). Type of assay: cell-based. The note with it: Table 3, CCL22 1.5 nM, read-out: Potency (IC50). As to the method:
Calcium Flux Assay. Compounds were evaluated in a calcium flux assay substantially performed as follows. Chem5-hCCR4 cells (EMD Millipore, Hayward, CA; HTS009C) were cultured under standard conditions and frozen in aliquots of 10×10^6 cells/mL. The day prior to compound testing, a vial was rapidly thawed and pipetted into 20 mL media (DMEM+10% FBS+1% Pen-Strep+1% L-glutamine). Cells were harvested by centrifugation and re-suspended in fresh culture medium. 25 μL of cell suspension was seeded into 384-well plates (Corning, Tewksbury, MA; CellBind with black wall/clear bottom). The plates were centrifuged at 300 g for 10 seconds and incubated overnight at 37° C. and 5% CO2. The day of compound testing, media was removed from the plates and 25 μL serum free media was added to each well. Plates were returned to the incubator for 2 h. 25 μL assay buffer (Hank's balanced salt solution+20 mM HEPES pH 7.4) containing FLIPR Calcium 6 dye (Molecular Devices, Sunnyvale, CA; #R8191) and probenecid (2.5 mM) was added to each well and incubated at 37° C. and 5% CO2 for 2 h. Compounds in DMSO were added to the plates using an HP D300e digital dispenser, and all wells were normalized to contain 0.25 μL (0.5%) DMSO. Plates were incubated for 1 hour at 37° C. and 5% CO2. CCL22 (Peprotech; Rockyhill, NJ) was diluted in assay buffer containing 0.1% BSA to 7.5 nM (corresponding to 5×EC80 of 1.5 nM).
Assay plates and working solution of CCL22 were transferred to the FlexStation plate reader (Molecular Devices) at 37° C. for 5 min of equilibration. Fluorescence recordings at 485 excitation/525 emission were performed at 2.5 second intervals. At t=16 seconds, 12.5 μL of CCL22 solution was added to each well and reads continued for 30 seconds at 2.5 second intervals. The minimum fluorescence (Fmin) was calculated by averaging the reads prior to ligand addition and the change in fluorescence (ΔF) was calculated by subtracting the Fmin from the average of the reads following ligand addition. The response ΔF/Fmin was plotted as a function of the compound concentration and the IC50 values were determined by non-linear regression analysis using a 4-parameter fit in either PRISM software (GraphPad; La Jolla, CA) or Dotmatics Browser.
(In general: A change in cytosolic calcium serves as a functional read-out for many receptors and channels.)
As usually defined, the IC50 is the concentration needed to halve the response being measured. With `Cc1nc(N2CC([C@H]3CCCN([C@H]4C[C@@H](C(=O)O)C4)C3)C2)nc(N[C@H](C)c2ccc(Cl)cc2Cl)c1C` [Example 30, (1S,3s)-3-((R)-3-(1-(4-(((R)-1-(2,4-dichlorophenyl)ethyl)amino)-5,6-dimethylpyrimidin-2-yl)azetidin-3-yl)piperidin-1-yl)cyclobutane-1-carboxylic acid], the concentration for half-maximal inhibition (IC50) was 100 to 500 nM. Consider `C[C@@H](Nc1nc(N2CC([C@H]3CCCN([C@H]4C[C@@H](C(=O)O)C4)C3)C2)nc2ccsc12)c1ccc(Cl)cc1Cl` [Example 31, (1S,3s)-3-((R)-3-(1-(4-(((R)-1-(2,4-dichlorophenyl)ethyl)amino)thieno[3,2-d]pyrimidin-2-yl)azetidin-3-yl)piperidin-1-yl)cyclobutane-1-carboxylic acid], for which the IC50 was less than 100 nM. In the case of `CCOC(=O)c1cnc(N2CC([C@H]3CCCN(CCO)C3)C2)nc1N[C@H](C)c1ccc(Cl)cc1Cl` [Example 32, ethyl 4-(((R)-1-(2,4-dichlorophenyl)ethyl)amino)-2-(3-((R)-1-(2-hydroxyethyl)piperidin-3-yl)azetidin-1-yl)pyrimidine-5-carboxylate], the IC50 is less than 100 nM.

As for `C[C@@H](Nc1nc(N2CC([C@H]3CCCN(CCO)C3)C2)ncc1C(=O)O)c1ccc(Cl)cc1Cl` [Example 33, 4-(((R)-1-(2,4-dichlorophenyl)ethyl)amino)-2-(3-((R)-1-(2-hydroxyethyl)piperidin-3-yl)azetidin-1-yl)pyrimidine-5-carboxylic acid], the 50% inhibitory concentration (IC50) was greater than 500 nM. For `C[C@@H](Nc1nc(N2CC(C3CCCN(CCN4CCCC4=O)C3C(=O)O)C2)ncc1Cl)c1ccc(Cl)cc1Cl` (stereo partly drawn) [Example 34, 3-(1-(5-chloro-4-(((R)-1-(2,4-dichlorophenyl)ethyl)amino)pyrimidin-2-yl)azetidin-3-yl)-1-(2-(2-oxopyrrolidin-1-yl)ethyl)piperidine-2-carboxylic acid], the 50% inhibitory concentration (IC50) lay within 100 to 500 nM. As for `C[C@@H](Nc1nc(N2CC([C@H]3CCCN([C@H]4C[C@](C)(C(=O)O)C4)C3)C2)ncc1C(C)(C)O)c1ccc(Cl)cc1Cl` [Example 35, (1R,3r)-3-((R)-3-(1-(4-(((R)-1-(2,4-dichlorophenyl)ethyl)amino)-5-(2-hydroxypropan-2-yl)pyrimidin-2-yl)azetidin-3-yl)piperidin-1-yl)-1-methylcyclobutane-1-carboxylic acid], the half-inhibitory concentration (IC50) is less than 100 nM.

For the compound `Cc1cnc(N2CC([C@H]3CCCN([C@H]4C[C@](C)(C(=O)O)C4)C3)C2)nc1N[C@H](C)c1ccc(Cl)cc1Cl` [Example 36, (1R,3r)-3-((R)-3-(1-(4-(((R)-1-(2,4-dichlorophenyl)ethyl)amino)-5-methylpyrimidin-2-yl)azetidin-3-yl)piperidin-1-yl)-1-methylcyclobutane-1-carboxylic acid], the IC50 lay in the range of 100 to 500 nM. Regarding `C[C@@H](Nc1nc(N2CC([C@H]3CCCN([C@H]4C[C@](C)(C(=O)O)C4)C3)C2)nc(C(F)(F)F)c1Cl)c1ccc(Cl)cc1Cl` [Example 37, (1R,3r)-3-((R)-3-(1-(5-chloro-4-(((R)-1-(2,4-dichlorophenyl)ethyl)amino)-6-(trifluoromethyl)pyrimidin-2-yl)azetidin-3-yl)piperidin-1-yl)-1-methylcyclobutane-1-carboxylic acid], the IC50 is less than 100 nM. With `Cc1nc(N2CC([C@H]3CCCN([C@H]4C[C@](C)(C(=O)O)C4)C3)C2)nc(N[C@H](C)c2ccc(Cl)cc2Cl)c1Cl` [Example 38, (1R,3r)-3-((R)-3-(1-(5-chloro-4-(((R)-1-(2,4-dichlorophenyl)ethyl)amino)-6-methylpyrimidin-2-yl)azetidin-3-yl)piperidin-1-yl)-1-methylcyclobutane-1-carboxylic acid], the IC50 is less than 100 nM. Still for that read-out and setting: then `C[C@@H](Nc1nc(N2CC([C@H]3CCCN([C@H]4C[C@](C)(C(=O)O)C4)C3)C2)ncc1C(F)(F)F)c1ccc(Cl)cc1Cl` [Example 39, (1R,3r)-3-((R)-3-(1-(4-(((R)-1-(2,4-dichlorophenyl)ethyl)amino)-5-(trifluoromethyl)pyrimidin-2-yl)azetidin-3-yl)piperidin-1-yl)-1-methylcyclobutane-1-carboxylic acid], with less than 100 nM; and `C[C@@H](Nc1nc(N2CC([C@H]3CCCN([C@H]4C[C@@](C)(C(=O)O)C4)C3)C2)ncc1Cl)c1ccc(Cl)cc1Cl` [Example 40, (1S,3s)-3-((R)-3-(1-(5-chloro-4-(((R)-1-(2,4-dichlorophenyl)ethyl)amino)pyrimidin-2-yl)azetidin-3-yl)piperidin-1-yl)-1-methylcyclobutane-1-carboxylic acid], with less than 100 nM; and `C[C@@H](Nc1nc(N2CC([C@H]3CCCN([C@H]4C[C@](C)(C(=O)O)C4)C3)C2)ncc1C1CC1)c1ccc(Cl)cc1Cl` [Example 41, (1R,3r)-3-((R)-3-(1-(5-cyclopropyl-4-(((R)-1-(2,4-dichlorophenyl)ethyl)amino)pyrimidin-2-yl)azetidin-3-yl)piperidin-1-yl)-1-methylcyclobutane-1-carboxylic acid], with less than 100 nM. Same read-out and setting: then `C[C@@H](Nc1nc(N2CC([C@H]3CCCN(CCO)C3)C2)ncc1C#N)c1ccc(S(C)(=O)=O)cc1Cl` [Example 42, 4-(((R)-1-(2-chloro-4-(methylsulfonyl)phenyl)ethyl)amino)-2-(3-((R)-1-(2-hydroxyethyl)piperidin-3-yl)azetidin-1-yl)pyrimidine-5-carbonitrile], with greater than 500 nM; and `C[C@@H](Nc1nc(N2CC([C@H]3CCCN(CCO)C3)C2)ncc1Br)c1ccc(F)cc1Cl` [Example 43, 2-((R)-3-(1-(5-bromo-4-(((R)-1-(2-chloro-4-fluorophenyl)ethyl)amino)pyrimidin-2-yl)azetidin-3-yl)piperidin-1-yl)ethan-1-ol], with less than 100 nM; and `C[C@@H](Nc1nc(N2CC([C@H]3CCCN(CCO)C3)C2)ncc1Cl)c1ccc(F)cc1Cl` [Example 44, 2-((R)-3-(1-(5-chloro-4-(((R)-1-(2-chloro-4-fluorophenyl)ethyl)amino)pyrimidin-2-yl)azetidin-3-yl)piperidin-1-yl)ethan-1-ol], with 100 to 500 nM.

Regarding `C[C@@H](Nc1nc(N2CC([C@H]3CCCN([C@H]4C[C@](C)(C(=O)O)C4)C3)C2)ncc1Br)c1ccc(F)cc1Cl` [Example 45, (1R,3r)-3-((R)-3-(1-(5-bromo-4-(((R)-1-(2-chloro-4-fluorophenyl)ethyl)amino)pyrimidin-2-yl)azetidin-3-yl)piperidin-1-yl)-1-methylcyclobutane-1-carboxylic acid], the half-inhibitory concentration (IC50) was less than 100 nM.

Turning to `C[C@@H](Nc1nc(N2CC([C@H]3CCCN([C@H]4C[C@@H](C(=O)O)C4)C3)C2)ncc1F)c1ccc(Cl)cc1Cl` [Example 46, (1S,3s)-3-((R)-3-(1-(4-(((R)-1-(2,4-dichlorophenyl)ethyl)amino)-5-fluoropyrimidin-2-yl)azetidin-3-yl)piperidin-1-yl)cyclobutane-1-carboxylic acid], the concentration for half-maximal inhibition (IC50) is greater than 500 nM. On to `C[C@@H](Nc1nc(N2CC([C@H]3CCCN([C@H]4C[C@](C)(C(=O)O)C4)C3)C2)ncc1F)c1ccc(Cl)cc1Cl` [Example 47, (1R,3r)-3-((R)-3-(1-(4-(((R)-1-(2,4-dichlorophenyl)ethyl)amino)-5-fluoropyrimidin-2-yl)azetidin-3-yl)piperidin-1-yl)-1-methylcyclobutane-1-carboxylic acid], for which the half-inhibitory concentration (IC50) is 100 to 500 nM. Regarding `C[C@@H](Nc1nc(N2CC([C@H]3CCCN(CCO)C3)C2)ncc1F)c1ccc(Cl)cc1Cl` [Example 48, 2-((R)-3-(1-(4-(((R)-1-(2,4-dichlorophenyl)ethyl)amino)-5-fluoropyrimidin-2-yl)azetidin-3-yl)piperidin-1-yl)ethan-1-ol], the 50% inhibitory concentration (IC50) was 100 to 500 nM.

Still in this assay, the particulars now being: Table 4, CCL22 1.5 nM, read-out: Potency (IC50).
As to `C[C@@H](Nc1nc(N2CC([C@H]3CCCN(CCO)C3)C2)cnc1C#N)c1ccc(Cl)cc1S(C)(=O)=O` [Example 49, 3-[[(1R)-1-(4-chloro-2-methylsulfonyl-phenyl)ethyl]amino]-5-[3-[(3R)-1-(2-hydroxyethyl)-3-piperidyl]azetidin-1-yl]pyrazine-2-carbonitrile; 2,2,2-trifluoroacetic acid], the IC50 is greater than 500 nM.

The record behind these values is US12098139B2, “Chemokine receptor modulators and uses thereof” (RAPT Therapeutics, Inc., priority 2018, dated 2024).
